Assay results from ChEMBL document CHEMBL6071142, “Isoalantolactone/hydroxamic acid hybrids as potent dual STAT3/HDAC inhibitors and self-assembled nanoparticles for cancer therapy” (Eur J Med Chem, 2024).
pIC50: −log10 of the molar value. Activity calls are given as the source filed them. The calls are words filed in the database; no cut-off is given here.

Tests used:
Histone deacetylase 2 = Histone deacetylase 2 (Homo sapiens, UniProt Q92769); assay: Inhibition of recombinant human HDAC2 using Boc-Lys (acetyl)-AMC as substrate preincubated with compound for 1 hr followed by substrate addition and measured after 30 mins by microplate reader assay
Histone deacetylase 4 = Histone deacetylase 4 (Homo sapiens, UniProt P56524); assay: Inhibition of recombinant human HDAC4 using Boc-Lys (trifluroacetyl)-AMC as substrate preincubated with compound for 1 hr followed by substrate addition and measured after 30 mins by microplate reader assay
Histone deacetylase 8 = Histone deacetylase 8 (Homo sapiens, UniProt Q9BY41); assay: Inhibition of recombinant human HDAC8 using Boc-Lys (trifluroacetyl)-AMC as substrate preincubated with compound for 1 hr followed by substrate addition and measured after 30 mins by microplate reader assay
Histone deacetylase 9 = Histone deacetylase 9 (Homo sapiens, UniProt Q9UKV0); assay: Inhibition of recombinant human HDAC9 using Boc-Lys (trifluroacetyl)-AMC as substrate preincubated with compound for 1 hr followed by substrate addition and measured after 30 mins by microplate reader assay
[1] = target: Signal transducer and activator of transcription 1-alpha/beta (Homo sapiens, UniProt P42224); assay: Binding affinity to STAT1 (unknown origin) assessed as dissociation constant by SPR assay
[2] = target: Signal transducer and activator of transcription 4 (Homo sapiens, UniProt Q14765); assay: Binding affinity to STAT4 (unknown origin) assessed as dissociation constant by SPR assay
[3] = target: Signal transducer and activator of transcription 5A (Homo sapiens, UniProt P42229); assay: Binding affinity to STAT5A (unknown origin) assessed as dissociation constant by SPR assay
[4] = target: Signal transducer and activator of transcription 5B (Homo sapiens, UniProt P51692); assay: Binding affinity to STAT5B (unknown origin) assessed as dissociation constant by SPR assay
A549 [5] = assay: cells; assay type: functional, cell-based; details: Homo sapiens, A549, 72 h
Description: Antiproliferative activity against human A549 cells assessed as inhibition of cell proliferation incubated for 72 hrs by CCK-8 assay

HepG2 = assay: Antiproliferative activity against human HepG2 cells assessed as inhibition of cell proliferation incubated for 72 hrs by CCK-8 assay; assay type: functional, cell-based; details: HepG2, 72 h
[6] = target: Signal transducer and activator of transcription 3 (Homo sapiens, UniProt P40763); assay: Inhibition of STAT3 (unknown origin) in human A549 cells incubated for 4 hrs by Cellular thermal shift assay; assay type: cell-based
[7] = target: Class 1 histone deacetylase (Homo sapiens) (UniProt Q13547+O15379+Q92769+Q9BY41); assay: Inhibition of class 1 HDAC in human A549 cells assessed as increase in […] at 0.5 uM incubated for 12 hrs by Western blot analysis; assay type: cell-based
[8] = target: Protein deacetylase HDAC6 (Homo sapiens) (UniProt Q9UBN7); assay: Inhibition of HDAC6 in human A549 cells assessed as increase in Ac-tubulin at 0.5 uM incubated for 12 hrs by Western blot analysis; assay type: cell-based
[9] = target: Protein deacetylase HDAC6 (Homo sapiens) (UniProt Q9UBN7); assay: Inhibition of HDAC6 in human A549 cells assessed as increase in […] level at 0.5 uM incubated for 12 hrs by Western blot analysis; assay type: cell-based
A549 [10] = assay: Effect on Bcl-2 protein level in human A549 cells at 4 uM incubated for 12 hrs by Western blot analysis; assay type: functional, cell-based
A549 [11] = assay: Induction of autophagy in human A549 cells transfected with mRFP-GFP-LC3 assessed as increase in LC3-II protein level at 0.5 uM incubated for 12 hrs by Western blot analysis; assay type: functional, cell-based
A549 [12] = assay: Induction of apoptosis in human A549 cells assessed as necrotic cells at 2 uM incubated for 24 hrs by Annexin V-FITC/PI staining based flow cytometric analysis (reference value: 1.20%); assay type: functional
A549 [13] = assay: Induction of apoptosis in human A549 cells assessed as necrotic cells at 4 uM incubated for 24 hrs by Annexin V-FITC/PI staining based flow cytometric analysis (reference value: 1.20%); assay type: functional
A549 [14] = assay: In vivo antitumor activity against human A549 cells xenografted in female BALB/c nu/nu mouse assessed as tumor volume at 2.5 mg/kg, iv administered every 3 days and measured on 18 day relative to control; assay type: functional; details: time 3 day
A549 [15] = assay: In vivo antitumor activity against human A549 cells xenografted in female BALB/c nu/nu mouse assessed as decrease in STAT3 phosphorylation level at 5 mg/kg, iv administered every 3 days for 9 days by Western blotting analysis; assay type: functional, organism-based; details: time 3.0 day
[16] = Toxicity in female BALB/c nu/nu mouse xenografted with human A549 cells assessed as effect on body weight at 5 mg/kg, iv and measured regularly; assay type: organism-based; details: in vivo
[17] = Toxicity in female BALB/c nu/nu mouse xenografted with human A549 cells assessed as effect on heart at 2.5 mg/kg, iv by H and E staining based analysis; assay type: organism-based; details: in vivo
[18] = Toxicity in female BALB/c nu/nu mouse xenografted with human A549 cells assessed as effect on kidney at 5 mg/kg, iv by H and E staining based analysis; assay type: organism-based; details: in vivo
[19] = Toxicity in female BALB/c nu/nu mouse xenografted with human A549 cells assessed as effect on spleen at 5 mg/kg, iv by H and E staining based analysis; assay type: organism-based; details: in vivo
HeLa = assay: Anticancer activity against human HeLa cells assessed as cell viability incubated for 72 hrs using self assembled nanoparticle as source of compound by CCK-8 assay; assay type: functional, cell-based
A549 [20] = assay: In vivo antitumor activity against human A549 cells xenografted in female BALB/c nu/nu mouse assessed as tumor volume at 5 mg/kg, iv administered every 3 days using self assembled nanoparticle as source of compound and measured on 18 day relative to control; assay type: functional; details: time 3 day
[21] = Drug uptake in tumor of nude mouse xenografted with A549 cells assessed as accumulation of tumor tissues at 5 mg/kg, iv using self assembled nanoparticle as source of compound by LC-MS/MS analysis; assay type: ADME, organism-based; details: in vivo
[22] = Biodistribution in spleen of nude mouse xenografted with A549 cells at 5 mg/kg, iv using chlorine e6 loaded self-assembled nanoparticle as source of compound incubated for 24 hrs by ex-vivo fluorescence based LC-MS/MS analysis; assay type: ADME, organism-based
[23] = Biodistribution in kidney of nude mouse xenografted with A549 cells at 5 mg/kg, iv using chlorine e6 loaded self-assembled nanoparticle as source of compound incubated for 24 hrs by ex-vivo fluorescence based LC-MS/MS analysis; assay type: ADME, organism-based
A549 [24] = assay: Induction of apoptosis in human A549 cells assessed as decrease in BCL-2 protein level at 6 uM incubated for 12 hrs by Western blot analysis
A549 [25] = assay: In vivo antitumor activity against human A549 cells xenografted in female BALB/c nu/nu mouse assessed as Ac-Histone H3 at 5 mg/kg, iv administered every 3 days for 18 days by Western blotting analysis; details: time 3.0 day
[26] = Drug accumulation in tumor of nude mouse xenografted with A549 cells assessed as increase in fluorescence at 5 mg/kg, iv using chlorine e6 loaded self assembled nanoparticle as source of compound by in vivo fluorescence imaging

Chain of Protein deacetylase HDAC6 (Homo sapiens) (Q9UBN7 whole entry): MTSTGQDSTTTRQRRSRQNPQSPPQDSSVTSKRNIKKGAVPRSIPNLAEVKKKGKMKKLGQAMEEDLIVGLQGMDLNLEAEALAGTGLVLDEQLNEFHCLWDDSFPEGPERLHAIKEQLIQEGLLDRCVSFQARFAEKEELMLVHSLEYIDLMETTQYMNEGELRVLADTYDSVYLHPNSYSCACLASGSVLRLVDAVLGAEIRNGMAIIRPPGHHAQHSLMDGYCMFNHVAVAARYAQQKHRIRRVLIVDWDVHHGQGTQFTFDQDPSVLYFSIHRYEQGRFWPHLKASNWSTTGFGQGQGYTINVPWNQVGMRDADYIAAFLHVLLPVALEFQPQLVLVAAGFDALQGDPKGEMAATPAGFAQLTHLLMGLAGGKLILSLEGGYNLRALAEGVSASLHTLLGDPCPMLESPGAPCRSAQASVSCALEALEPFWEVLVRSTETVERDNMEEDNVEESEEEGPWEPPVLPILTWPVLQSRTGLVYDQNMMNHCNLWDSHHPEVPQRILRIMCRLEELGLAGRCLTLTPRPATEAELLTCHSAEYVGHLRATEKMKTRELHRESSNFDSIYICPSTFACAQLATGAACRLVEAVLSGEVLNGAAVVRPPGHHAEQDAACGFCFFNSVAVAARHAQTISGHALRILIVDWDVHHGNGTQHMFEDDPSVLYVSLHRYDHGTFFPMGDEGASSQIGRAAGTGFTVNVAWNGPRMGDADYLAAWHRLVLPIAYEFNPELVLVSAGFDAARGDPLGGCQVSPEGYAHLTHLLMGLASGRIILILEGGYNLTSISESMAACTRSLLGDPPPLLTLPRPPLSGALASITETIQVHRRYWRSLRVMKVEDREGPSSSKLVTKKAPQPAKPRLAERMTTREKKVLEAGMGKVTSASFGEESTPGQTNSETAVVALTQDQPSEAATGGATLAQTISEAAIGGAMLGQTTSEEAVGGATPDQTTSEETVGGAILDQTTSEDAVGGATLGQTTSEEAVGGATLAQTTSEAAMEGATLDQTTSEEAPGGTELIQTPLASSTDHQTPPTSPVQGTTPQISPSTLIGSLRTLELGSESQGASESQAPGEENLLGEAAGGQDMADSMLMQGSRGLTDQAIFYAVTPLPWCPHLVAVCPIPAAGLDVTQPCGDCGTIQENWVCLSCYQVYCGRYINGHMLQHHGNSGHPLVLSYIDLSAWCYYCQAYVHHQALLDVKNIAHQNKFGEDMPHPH
Chain of Histone deacetylase 2 (Q92769 whole entry): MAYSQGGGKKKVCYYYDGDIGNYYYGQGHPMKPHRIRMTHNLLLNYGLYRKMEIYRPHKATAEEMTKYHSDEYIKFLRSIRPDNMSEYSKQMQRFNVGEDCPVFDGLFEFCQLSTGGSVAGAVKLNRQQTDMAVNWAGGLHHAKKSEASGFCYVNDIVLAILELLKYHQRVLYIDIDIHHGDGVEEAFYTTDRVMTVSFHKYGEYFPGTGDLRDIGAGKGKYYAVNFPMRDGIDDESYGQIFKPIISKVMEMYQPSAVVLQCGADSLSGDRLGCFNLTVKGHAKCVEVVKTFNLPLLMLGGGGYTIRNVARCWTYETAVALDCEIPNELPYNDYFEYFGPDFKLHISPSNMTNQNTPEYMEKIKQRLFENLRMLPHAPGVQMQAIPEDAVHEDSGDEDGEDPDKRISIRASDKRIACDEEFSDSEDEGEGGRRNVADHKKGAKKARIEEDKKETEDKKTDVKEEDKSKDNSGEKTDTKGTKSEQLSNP
Chain of Class 1 histone deacetylase (Homo sapiens) (O15379 whole entry, looked up): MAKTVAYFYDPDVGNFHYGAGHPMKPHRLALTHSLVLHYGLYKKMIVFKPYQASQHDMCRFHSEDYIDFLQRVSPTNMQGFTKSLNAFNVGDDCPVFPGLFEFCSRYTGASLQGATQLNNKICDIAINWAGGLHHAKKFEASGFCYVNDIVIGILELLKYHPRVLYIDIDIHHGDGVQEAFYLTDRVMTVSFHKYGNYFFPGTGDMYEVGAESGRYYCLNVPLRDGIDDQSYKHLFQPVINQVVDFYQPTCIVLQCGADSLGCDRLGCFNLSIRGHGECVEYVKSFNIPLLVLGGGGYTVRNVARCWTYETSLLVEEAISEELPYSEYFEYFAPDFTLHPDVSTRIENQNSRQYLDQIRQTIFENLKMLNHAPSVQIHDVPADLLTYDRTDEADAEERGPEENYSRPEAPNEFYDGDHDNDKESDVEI
Chain of Class 1 histone deacetylase (Homo sapiens) (Q13547 whole entry, looked up): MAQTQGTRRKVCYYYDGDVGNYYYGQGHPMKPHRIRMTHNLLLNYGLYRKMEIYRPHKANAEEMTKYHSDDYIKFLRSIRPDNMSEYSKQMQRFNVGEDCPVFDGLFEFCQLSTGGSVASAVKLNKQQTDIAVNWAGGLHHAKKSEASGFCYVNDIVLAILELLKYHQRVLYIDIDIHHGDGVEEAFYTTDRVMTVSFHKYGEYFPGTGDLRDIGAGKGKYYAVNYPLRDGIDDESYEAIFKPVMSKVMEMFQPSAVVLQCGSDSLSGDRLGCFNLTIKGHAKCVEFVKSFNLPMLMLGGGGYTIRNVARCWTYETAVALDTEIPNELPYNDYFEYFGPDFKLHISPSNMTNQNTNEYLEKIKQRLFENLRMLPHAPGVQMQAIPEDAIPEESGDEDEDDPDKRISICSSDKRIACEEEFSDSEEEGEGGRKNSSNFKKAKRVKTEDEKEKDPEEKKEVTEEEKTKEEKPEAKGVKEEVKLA
Chain of Class 1 histone deacetylase (Homo sapiens) (Q92769 whole entry, looked up): as the sequence (Q92769 whole entry) above
Chain of Class 1 histone deacetylase (Homo sapiens) (Q9BY41 whole entry, looked up): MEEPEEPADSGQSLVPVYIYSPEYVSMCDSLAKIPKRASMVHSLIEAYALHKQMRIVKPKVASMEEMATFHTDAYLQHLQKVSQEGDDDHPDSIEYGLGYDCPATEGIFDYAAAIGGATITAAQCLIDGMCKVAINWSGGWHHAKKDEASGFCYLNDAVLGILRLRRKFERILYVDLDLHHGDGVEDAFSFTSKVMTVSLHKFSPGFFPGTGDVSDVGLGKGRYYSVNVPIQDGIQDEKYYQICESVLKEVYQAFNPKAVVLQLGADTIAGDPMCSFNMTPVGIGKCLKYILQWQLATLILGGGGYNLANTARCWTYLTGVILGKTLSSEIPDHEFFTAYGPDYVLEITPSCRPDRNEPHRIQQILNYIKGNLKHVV
Chain of Signal transducer and activator of transcription 3 (P40763 whole entry): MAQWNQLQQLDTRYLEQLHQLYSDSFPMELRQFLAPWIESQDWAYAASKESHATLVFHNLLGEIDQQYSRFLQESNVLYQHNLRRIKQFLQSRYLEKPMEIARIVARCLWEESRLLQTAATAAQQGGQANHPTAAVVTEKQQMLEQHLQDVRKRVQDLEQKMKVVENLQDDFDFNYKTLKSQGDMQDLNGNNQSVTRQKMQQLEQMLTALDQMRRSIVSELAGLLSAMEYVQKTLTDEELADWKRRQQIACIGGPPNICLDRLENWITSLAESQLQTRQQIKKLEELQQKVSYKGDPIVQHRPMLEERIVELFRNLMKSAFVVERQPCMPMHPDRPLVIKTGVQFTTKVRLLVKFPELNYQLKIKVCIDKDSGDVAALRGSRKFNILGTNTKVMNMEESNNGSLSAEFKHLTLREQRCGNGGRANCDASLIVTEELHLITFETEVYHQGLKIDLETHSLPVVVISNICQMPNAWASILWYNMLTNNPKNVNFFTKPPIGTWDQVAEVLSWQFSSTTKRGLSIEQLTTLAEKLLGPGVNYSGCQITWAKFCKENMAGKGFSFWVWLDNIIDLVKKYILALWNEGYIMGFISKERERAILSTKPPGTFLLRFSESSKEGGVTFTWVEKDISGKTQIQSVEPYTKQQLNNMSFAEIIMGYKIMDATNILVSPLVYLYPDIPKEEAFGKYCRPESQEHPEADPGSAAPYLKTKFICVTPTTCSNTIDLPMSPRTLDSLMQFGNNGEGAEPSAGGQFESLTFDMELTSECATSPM
Chain of Signal transducer and activator of transcription 4 (Q14765 whole entry): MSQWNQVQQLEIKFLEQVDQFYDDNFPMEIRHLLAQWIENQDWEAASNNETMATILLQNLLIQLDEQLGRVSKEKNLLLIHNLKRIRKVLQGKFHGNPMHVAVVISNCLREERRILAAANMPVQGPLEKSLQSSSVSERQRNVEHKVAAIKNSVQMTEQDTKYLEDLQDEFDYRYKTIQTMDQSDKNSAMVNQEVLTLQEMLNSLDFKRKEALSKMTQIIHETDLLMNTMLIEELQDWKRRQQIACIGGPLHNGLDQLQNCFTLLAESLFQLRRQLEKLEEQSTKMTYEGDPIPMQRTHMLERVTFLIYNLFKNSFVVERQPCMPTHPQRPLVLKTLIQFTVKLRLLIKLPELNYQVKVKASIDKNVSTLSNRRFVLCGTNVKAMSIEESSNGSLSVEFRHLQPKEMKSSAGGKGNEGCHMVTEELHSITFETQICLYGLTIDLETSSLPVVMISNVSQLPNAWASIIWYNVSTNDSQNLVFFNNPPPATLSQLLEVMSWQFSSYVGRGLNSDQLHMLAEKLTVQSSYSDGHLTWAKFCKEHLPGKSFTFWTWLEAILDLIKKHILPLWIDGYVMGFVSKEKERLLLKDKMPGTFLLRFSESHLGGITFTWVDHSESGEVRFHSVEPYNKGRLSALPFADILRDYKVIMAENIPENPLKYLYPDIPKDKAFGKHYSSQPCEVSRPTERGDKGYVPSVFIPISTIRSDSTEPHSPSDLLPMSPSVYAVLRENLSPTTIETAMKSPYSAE
Chain of Histone deacetylase 8 (Q9BY41 whole entry): as the sequence (Q9BY41 whole entry, looked up) above

- pIC50 (Histone deacetylase 2): 7.28
- pIC50 (Histone deacetylase 4): < 5.00
- pIC50 (Histone deacetylase 8): 5.85
- pIC50 (Histone deacetylase 9): < 5.00
- Kd [1]: Not Active
- Kd [2]: Not Active
- Kd [3]: Not Active
- Kd [4]: Not Active
- pIC50 (A549 [5]): 6.92
- pIC50 (HepG2): 6.59
- inhibition [6]: Active
- inhibition [7]: Active
- inhibition [8]: Active
- inhibition [9]: Active
- pIC50 (HeLa): 7.14
- Drug uptake [21]: Active
- Drug uptake [22]: Active
- Drug uptake [23]: Active
- Drug uptake [26]: Active
SMILES: C=C1C(=O)O[C@@H]2C[C@@]3(C)CC[C@@H](OC(=O)[C@H](C)NC(=O)c4ccc(/C=C/C(=O)NO)cc4)C(=C)[C@@H]3C[C@H]12
- Activity (A549 [10]): inactive
- Activity (A549 [11]): Active
- Activity (A549 [12]): 1.59%
- Activity (A549 [13]): 2.99%
- Activity (A549 [14]): 70.7%
- Activity (A549 [15]): Active
- Activity [16]: Non-Toxic
- Activity [17]: Non-Toxic
- Activity [18]: Non-Toxic
- Activity [19]: Non-Toxic
- Activity (A549 [20]): 19.9%
- Activity (A549 [24]): Active
- Activity (A549 [25]): Active
